The target of test [1] is T1, hFXR-LBD (FXR-GAL4 chimeric receptor) (Homo sapiens, UniProt Q96RI1).
T1 construct: host or cells: HEK293T
T1 sequence (Q96RI1 262-486 limits assumed): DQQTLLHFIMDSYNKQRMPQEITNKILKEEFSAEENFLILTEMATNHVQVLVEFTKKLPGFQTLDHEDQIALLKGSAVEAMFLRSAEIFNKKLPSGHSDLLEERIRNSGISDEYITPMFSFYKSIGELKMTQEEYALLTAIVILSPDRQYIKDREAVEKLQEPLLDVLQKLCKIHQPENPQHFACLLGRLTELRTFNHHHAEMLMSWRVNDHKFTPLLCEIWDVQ
Description: FXR Transactivation Assay (GAL4 luciferase reporter in HEK293T cells). It counts as cell-based. Here is the method: FXR Transactivation Assay
The present compounds were tested to assess their ability to stimulate FXR transactivation activity. The hFXR-LBD, coding sequence was inserted into the pBIND expression vector (Promega, E1581) to express FXR-GAL4 binding domain chimeric receptors. This expression vector and reporter vector (pGL4.35 which carry a stably integrated GAL4 promoter driven luciferase reporter gene) were co-transfected into HEK293T host cells. Upon agonist binding to the corresponding FXR-GAL4 chimeric receptor, the chimeric receptor binds to the GAL4 binding sites and stimulates the reporter gene.
All the working stock were shake for 5 min on plate shaker (QILINBEIER). Second, all cells were cultured as ATCC recommended. HEK293T cells were assayed in exponential growth phase. Removed culture medium from the flask and rinsed cells with PBS. Added TrypLE solution to the flask and make cells detach. Next, cells were washed once with complete growth medium. Then, cells were pelleted and washed twice with PBS to remove phenol red and resuspend them in medium to a proper concentration. Only cells with viability greater than 90% were used for assays. Seeded 6×10^6 HEK293T cells into a 100 mm dish and incubated at 37° C. under 5% CO2 atmosphere for 16 h. Third, Trans-IT reagent and Opti-MEM mix by inversion and incubate 5 min at room temperature. The cell transfection was performed by mixing DNA and the reagent mixture, as well as 6 μg GAL4-FXR plasmid or 2 μg pGL4.35 luciferase plasmid, respectively. The reagent mixture was added to a 100 mm dish and incubated for 4-7 hrs at 37° C. under 5% CO2 atmosphere. Fourth, transferred 75 nl compound dilutions into 384-well assay plates (PerkinElmer) and seeded HEK293T cells at 17,000 cells/well using phenol red-free DMEM containing 5% charcoal/dextran-treated FBS. Then, cells were incubated for 16-20 h at 37° C. under 5% CO2 atmosphere. Finally, added 25 μl Steady-Glo™ Luciferase Assay Reagent into each well of 384-well assay plate, and then shake plate for 5 min protected from light on a plate shaker. Then, the luminescence value was read on Evision 2104 plate reader (PerkinElmer).
The activity ratio was calculated as follow: […]
RLU: Resulting Luminescence
RLUpositive: The average RLU for the positive controls across the plate.
RLUvehicle: The average RLU for negative controls across the plate.
(§1) EC50 was calculated by fitting % Activity values and log of compound concentrations to nonlinear regression (dose response-variable slope) with GraphPad 5.0.
(§2) X: log of compound concentration.
Background: In a reporter assay the amount or activity of a reporter protein is the signal.

For the next test, the target named is T2, FXR LBD, GST (Homo sapiens, UniProt Q96RI1).
T2 construct: FXR LBD, GST; purchased Invitrogen PV4834
T2 sequence (Q96RI1 262-486 limits assumed): T1 sequence (Q96RI1 262-486 limits assumed)
Description: FXR Binding Assay (TR-FRET, Fluorescein-SRC2-2 coactivator peptide). As to conditions: for Emax: % Activity relative to positive control, read-out: Pct Effect (Emax %); for EC50: TR-FRET FXR LBD coactivator recruitment. As for the experimental part:
The interaction between the present compounds and FXR are evaluated by Time-Resolved Fluorescence Resonance Energy Transfer (TR-FRET) competition assay. FRET describes a radiation-free energy transfer between two chromophores: a donor fluorophore in its excited state can transfer energy to an acceptor fluorophore in close proximity (typically <10 nm). In contrast to standard FRET, TR-FRET unites time-resolved fluorescence (TRF) and the FRET principle, TRF use a long-lifetime lanthanide chelate as the donor species, while lanthanide chelates are unique in that their excited-state lifetime can be on the order of a millisecond or longer. Suitable neighbors for FRET are known in the art and can be obtained.
The assay was performed in following steps: first, prepared a) 1 mM compounds (100×) in DMSO; b) reaction buffer containing 1× buffer G with 10 mM DTT; c) 4×FXR LBD (20 nM) in 1× chilled buffer G. Second, performed 3-fold serial dilution of 1 mM test compounds using DMSO from 1 mM, 10 doses in a 96-well plate (249944, Nunc). Then, used complete buffer G to dilute each 100× compounds serial dilution to 2×. Third, added 10 μl 2× compound serial dilution into 384-well plate (3677, Corning). Then, added 5 μl FXR LBD into the assay plate. Prepared a solution containing 2 μM fluorescein-SRC2-2 (4×) and 20 nM Tb anti-GST antibody (4×) in buffer G at room temperature and started the reaction by adding 5 μl the above solution into each well of the assay plate. Centrifuged the assay plates at 1000 g for 1 min and then incubated at room temperature for lhr protected from light. Finally, the plate was read at wavelengths of 520 nm and 495 nm on Envision 2104 plate reader (PerkinElmer).
A ratio (Ratio520 nm/495 nm−Ratiobackground) was calculated for each well. The activity ratio was calculated as follow: […]
Ratiopositive: The average ratio for the positive control across the plate.
Ratiovehicle: The average ratio for negative controls across the plate.
as §1, §2

Experimental findings from US20220227745A1, “Compounds For Modulating FXR” (NANJING RUIJIE PHARMA TECH CO., LTD., priority 2019, published 2022) are described below.

As a reminder, the EC50 is the midpoint of the concentration-response curve. High values mean a less potent agent, low ones a more potent agent. By Emax is commonly meant the greatest response seen or fitted, relative to the assay's reference.

Consider `Cn1cc(C(=O)O)c2ccc(N3CCCN(CCc4c(-c5c(Cl)cccc5Cl)noc4C4CC4)CC3)cc21` [Example I7, 6-(4-(2-(5-cyclopropyl-3-(2,6-dichlorophenyl)isoxazol-4-yl)ethyl)-1,4-diazepan-1-yl)-1-methyl-1H-indole-3-carboxylic Acid], for which the EC50 in test [1] turned out to be 743 nM. For the same compound, at FXR LBD, GST, the Emax is 98.1% and the EC50 is 25 nM.

As for `CC1CN(c2ccc3c(C(=O)O)cn(C)c3c2)CCN1CCc1c(-c2c(Cl)cccc2Cl)noc1C1CC1` (stereo not drawn) [Example I8, 6-(4-(2-(5-cyclopropyl-3-(2,6-dichlorophenyl)isoxazol-4-yl)ethyl)-3-methylpiperazin-1-yl)-1-methyl-1H-indole-3-carboxylic Acid], the EC50 in test [1] was determined as 138 nM; on FXR LBD, GST, 94 nM. The Emax at FXR LBD, GST was 202%.

The compound `Cn1cc(C(=O)O)c2ccc(N3CCN(CCc4c(-c5c(F)cccc5Cl)noc4C4CC4)CC3)cc21` [Example I10, 6-(4-(2-(3-(2-chloro-6-fluorophenyl)-5-cyclopropylisoxazol-4-yl)ethyl)piperazin-1-yl)-1-methyl-1H-indole-3-carboxylic Acid] had an EC50 in test [1] of 524 nM. Also, at FXR LBD, GST, the Emax came to 173% and the half-maximal effective concentration (EC50) was determined as 728 nM.

Regarding `CC1CN(CCc2c(-c3c(Cl)cccc3Cl)noc2C2CC2)CCN1c1ccc2c(C(=O)O)cn(C)c2c1` (stereo not drawn) [Example I12, 6-(4-(2-(5-cyclopropyl-3-(2,6-dichlorophenyl)isoxazol-4-yl)ethyl)-2-methylpiperazin-1-yl)-1-methyl-1H-indole-3-carboxylic Acid], a half-maximal effect in test [1] (EC50) was put at 129 nM. Besides, at FXR LBD, GST, the Emax amounted to 147% and the response was half-maximal at 133 nM (EC50).

For the compound `O=C(O)c1ccc(N2CCN(CCc3c(-c4c(Cl)cccc4Cl)noc3C3CC3)CC2)cc1` [Example I14, 4-(4-(2-(5-cyclopropyl-3-(2,6-dichlorophenyl)isoxazol-4-yl)ethyl)piperazin-1-yl)benzoic Acid], the 50% effective concentration (EC50) in test [1] was found to be 912 nM; at FXR LBD, GST, 655 nM. In addition, on FXR LBD, GST, the Emax turned out to be 142%.

`O=C(O)c1c[nH]c2cc(N3CCN(CCc4c(-c5c(Cl)cccc5Cl)noc4C4CC4)CC3)ccc12` [Example I15, 6-(4-(2-(5-cyclopropyl-3-(2,6-dichlorophenyl)isoxazol-4-yl)ethyl)piperazin-1-yl)-1H-indole-3-carboxylic Acid] returned a 50% effective concentration (EC50) in test [1] of 667 nM. Besides, at FXR LBD, GST, the Emax came out at 168% and the response was half-maximal at 419 nM (EC50).

Regarding `Cn1nc(C(=O)O)c2ccc(N3CCN(CCc4c(-c5c(Cl)cccc5Cl)noc4C4CC4)CC3)cc21` [Example I17, 6-(4-(2-(5-cyclopropyl-3-(2,6-dichlorophenyl)isoxazol-4-yl)ethyl)piperazin-1-yl)-1-methyl-1H-indazole-3-carboxylic Acid], the EC50 in test [1] is 1230 nM; at FXR LBD, GST, 46 nM. In addition, the maximal effect (Emax) at FXR LBD, GST turned out to be 131%.

Turning to `Cn1nc2cc(N3CCN(CCc4c(-c5c(Cl)cccc5Cl)noc4C4CC4)CC3)ccc2c1C(=O)O` [Example I18, 6-(4-(2-(5-cyclopropyl-3-(2,6-dichlorophenyl)isoxazol-4-yl)ethyl)piperazin-1-yl)-2-methyl-2H-indazole-3-carboxylic Acid], the EC50 in test [1] came out at 436 nM; on FXR LBD, GST it was 46 nM. Besides, the Emax on FXR LBD, GST stood at 142%.

For the compound `Cn1cc(C(=O)O)c2ccc(N3CCN(CCc4c(-c5ccccc5OC(F)(F)F)noc4C4CC4)CC3)cc21` [Example I20, 6-(4-(2-(5-cyclopropyl-3-(2-(trifluoromethoxy)phenyl)isoxazol-4-yl)ethyl)piperazin-1-yl)-1-methyl-1H-indole-3-carboxylic Acid], in test [1], a half-maximal effect (EC50) was put at 906 nM. Further, on FXR LBD, GST, the Emax was determined as 193% and the EC50 amounted to 450 nM.

For the compound `COc1cccc(Cl)c1-c1noc(C2CC2)c1CCN1CCN(c2ccc3c(C(=O)O)cn(C)c3c2)CC1` [Example I21, 6-(4-(2-(3-(2-chloro-6-methoxyphenyl)-5-cyclopropylisoxazol-4-yl)ethyl)piperazin-1-yl)-1-methyl-1H-indole-3-carboxylic Acid], the EC50 was 2860 nM in test [1] and 890 nM at FXR LBD, GST. Further, the Emax on FXR LBD, GST is 85.1%.

Take `Cc1cccc(Cl)c1-c1noc(C2CC2)c1CCN1CCN(c2ccc3c(C(=O)O)cn(C)c3c2)CC1` [Example I22, 6-(4-(2-(3-(2-chloro-6-methylphenyl)-5-cyclopropylisoxazol-4-yl)ethyl)piperazin-1-yl)-1-methyl-1H-indole-3-carboxylic Acid]: the EC50 in test [1] stood at 634 nM. Besides, at FXR LBD, GST, the Emax turned out to be 163% and a half-maximal response (EC50) required 162 nM.

Compound `CC(CN1CCN(c2ccc3c(C(=O)O)cn(C)c3c2)CC1)c1c(-c2c(Cl)cccc2Cl)noc1C1CC1` (stereo not drawn) [Example I24, 6-(4-(2-(5-cyclopropyl-3-(2,6-dichlorophenyl)isoxazol-4-yl)propyl)piperazin-1-yl)-1-methyl-1H-indole-3-carboxylic Acid] gave a concentration giving a half-maximal response (EC50) in test [1] of 1860 nM. Besides, at FXR LBD, GST, the Emax stood at 89.8% and the EC50 was determined as 422 nM.

As for `Cn1cc(C(=O)O)c2ccc(N3CCN(CCc4c(-c5c(Cl)cccc5Cl)noc4C4CC4)CC3(C)C)cc21` [Example I25, 6-(4-(2-(5-cyclopropyl-3-(2,6-dichlorophenyl)isoxazol-4-yl)ethyl)-2,2-dimethylpiperazin-1-yl)-1-methyl-1H-indole-3-carboxylic Acid], the EC50 in test [1] was 288 nM. Also, at FXR LBD, GST, the Emax came to 151% and the midpoint of the response, the EC50, lay at 83 nM.

Take `Cn1cc(C(=O)O)c2ccc(N3CCN(CCc4c(-c5ccccc5C(F)(F)F)noc4C4CC4)CC3)cc21` [Example I26, 6-(4-(2-(5-cyclopropyl-3-(2-(trifluoromethyl)phenyl)isoxazol-4-yl)ethyl)piperazin-1-yl)-1-methyl-1H-indole-3-carboxylic Acid]: in test [1], the EC50 turned out to be 1210 nM. In addition, at FXR LBD, GST, the Emax stood at 214% and the EC50 was determined as 882 nM.

For the compound `Cc1onc(-c2c(Cl)cccc2Cl)c1CCN1CCN(c2ccc3c(C(=O)O)cn(C)c3c2)CC1` [Example I27, 6-(4-(2-(3-(2,6-dichlorophenyl)-5-methylisoxazol-4-yl)ethyl)piperazin-1-yl)-1-methyl-1H-indole-3-carboxylic Acid], in test [1], the EC50 turned out to be 1800 nM. At FXR LBD, GST, the Emax was determined as 91.1% and the concentration for a half-maximal effect (EC50) came out at 454 nM.

In the case of `Cn1cc(C(=O)O)c2ccc(N3C4CCC3CN(CCc3c(-c5c(Cl)cccc5Cl)noc3C3CC3)C4)cc21` [Example I30, 6-(3-(2-(5-cyclopropyl-3-(2,6-dichlorophenyl)isoxazol-4-yl)ethyl)-3,8-diazabicyclo[3.2.1]octan-8-yl)-1-methyl-1H-indole-3-carboxylic Acid], in test [1], the EC50 was 1200 nM. On FXR LBD, GST, the Emax was 111% and it took 60 nM to reach a half-maximal effect (EC50).
